Consider four compounds from US20250177333A1, “METHOD FOR TREATING RHEUMATOID ARTHRITIS (RA) USING AN ENZYME-AND SUBSTRATE SELECTIVE EXOSITE INHIBITOR OF A DISINTEGRIN AND METALLOPROTEASE 10 (ADAM10)” (Nova Southeastern University, priority 2022, published 2025).

Broadly, the % Inhibition is the relative decrease from the control value, in per cent. The low end stands for a weak effect, the high end for a strong effect. As a reminder, the pIC50 is the negative decadic logarithm of the IC50, by convention in mol/L.

pIC50: −log10 of the molar value.

Data set [1] has as its target T1, ADAM10 (Homo sapiens, UniProt O14672).
T1 sequence (O14672 214-748): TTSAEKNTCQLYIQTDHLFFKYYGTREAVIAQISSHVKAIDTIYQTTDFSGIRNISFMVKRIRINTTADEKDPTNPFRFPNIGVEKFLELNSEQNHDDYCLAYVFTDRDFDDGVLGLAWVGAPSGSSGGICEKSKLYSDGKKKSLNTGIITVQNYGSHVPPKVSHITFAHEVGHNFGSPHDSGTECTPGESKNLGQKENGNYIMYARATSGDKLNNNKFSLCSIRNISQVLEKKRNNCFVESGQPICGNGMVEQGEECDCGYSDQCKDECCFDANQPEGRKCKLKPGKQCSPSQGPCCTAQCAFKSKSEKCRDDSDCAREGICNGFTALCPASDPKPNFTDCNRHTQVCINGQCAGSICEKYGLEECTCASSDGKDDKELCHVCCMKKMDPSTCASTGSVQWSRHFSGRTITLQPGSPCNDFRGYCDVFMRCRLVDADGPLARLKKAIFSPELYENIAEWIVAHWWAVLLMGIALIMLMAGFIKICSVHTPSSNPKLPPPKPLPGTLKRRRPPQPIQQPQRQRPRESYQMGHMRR
Nature of the data set: ADAM10 inhibition, HTS campaign and profiling. Type of data set: biochemical. From the text: (§1) An ADAM10 non-Zn-binding inhibition approach overcomes drawbacks of Zn-binders. As shown by global knockout studies. ADAM10 is vital for development, homeostasis and repair, which makes global inhibition of all functions of this enzyme non-feasible as a therapeutic approach. […] In previous research, the instant inventor conducted a HTS campaign to identify inhibitors of ADAM10 and ADAM17. […] This was verified by profiling studies. An exceptional HTS hit, however, is CID3117694 and related compounds (FIG. 7). While it contains highly polar functionality, these groups are not typical Zn binders, such as the hydroxamic acid groups highlighted in LT4, INCB8765, and GI254023X. […] This new class of selective ADAMI0 inhibitors acts via a non-Zn-binding mechanism and that potentially bind outside of an active site at the hitherto unknown secondary substrate binding site (exosite).

Data set [2] relates to broader panel of Zn metalloproteases. As to the kind of experiment: Profiling against broader panel of Zn metalloproteases. The class given is biochemical.
Excerpt: as §1

The nature of data set [3]: Toxicity in cell-based assays. The text has this:
(§2) The instant inventor has discovered a conceptually novel class of ADAM10 inhibitors acting via a non-zinc-binding inhibition mechanism.

Data set [4] addresses adrenergic (ADRB2) (Homo sapiens, UniProt P07550). The conditions noted are these: PubChem; cited from earlier work.
Data set [5] deals with opioid receptors (OPRM1) (Homo sapiens, UniProt P35372). The conditions noted are these: PubChem; cited from earlier work.
Sequence of opioid receptors (OPRM1) (P35372 whole entry, species assumed): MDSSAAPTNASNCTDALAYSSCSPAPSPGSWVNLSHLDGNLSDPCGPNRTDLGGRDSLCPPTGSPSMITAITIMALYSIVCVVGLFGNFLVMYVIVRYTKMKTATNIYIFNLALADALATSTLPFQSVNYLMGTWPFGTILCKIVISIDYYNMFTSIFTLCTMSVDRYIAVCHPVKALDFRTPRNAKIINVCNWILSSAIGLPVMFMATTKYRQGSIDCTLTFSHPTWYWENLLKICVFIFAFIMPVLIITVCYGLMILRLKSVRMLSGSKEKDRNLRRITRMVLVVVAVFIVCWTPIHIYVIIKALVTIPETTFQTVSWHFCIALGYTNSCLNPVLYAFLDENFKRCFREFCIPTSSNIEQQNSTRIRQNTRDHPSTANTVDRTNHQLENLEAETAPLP
For data set [6], the system named is CXCL16. As to the kind of experiment: Cell-based inhibition of CXCL16 shedding (responsible ADAM 10) in A549 cells. The settings on record: CXCL16, Human, 10 μM tested.
Excerpt: as §2

Data set [7] addresses opioid receptors (OPRD1) (Homo sapiens, UniProt P41143). The conditions noted are these: PubChem; cited from earlier work.
For data set [8] the following is noted: PubChem database search; cited from earlier work.
Data set [9] deals with CCL2-induced. Nature of the data set: Cell-based inhibition of CCL2-induced migration of PBMC (responsible ADAM 10). The settings on record: Human, 10 μM tested.
Excerpt: as §2

For data set [10], the system named is IL8-induced migration. Nature of the data set: Cell-based inhibition of IL8-induced migration of neutrophils (responsible ADAM 10). The conditions noted are these: Human, 10 μM tested.
Excerpt: as §2

The target of data set [11] is T2, muscarinic (CHRM1) (Homo sapiens, UniProt P11229).
T2 sequence (P11229 1-460): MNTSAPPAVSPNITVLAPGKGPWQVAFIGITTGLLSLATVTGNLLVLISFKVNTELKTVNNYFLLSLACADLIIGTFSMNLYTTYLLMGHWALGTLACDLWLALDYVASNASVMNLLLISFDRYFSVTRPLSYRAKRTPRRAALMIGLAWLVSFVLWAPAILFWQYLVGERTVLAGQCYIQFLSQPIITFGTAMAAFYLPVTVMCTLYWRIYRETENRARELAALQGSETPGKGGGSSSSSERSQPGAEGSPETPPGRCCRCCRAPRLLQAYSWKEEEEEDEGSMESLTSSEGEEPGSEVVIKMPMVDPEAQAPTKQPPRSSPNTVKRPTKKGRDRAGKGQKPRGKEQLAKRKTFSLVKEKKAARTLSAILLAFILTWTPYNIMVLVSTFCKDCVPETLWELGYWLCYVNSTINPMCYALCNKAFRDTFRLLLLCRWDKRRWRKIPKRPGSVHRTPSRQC
The settings on record: PubChem; cited from earlier work.

The target of data set [12] is opioid receptors (OPRK1) (Homo sapiens, UniProt P41145). The settings on record: PubChem; cited from earlier work.
Sequence of opioid receptors (OPRK1) (P41145 whole entry, species assumed): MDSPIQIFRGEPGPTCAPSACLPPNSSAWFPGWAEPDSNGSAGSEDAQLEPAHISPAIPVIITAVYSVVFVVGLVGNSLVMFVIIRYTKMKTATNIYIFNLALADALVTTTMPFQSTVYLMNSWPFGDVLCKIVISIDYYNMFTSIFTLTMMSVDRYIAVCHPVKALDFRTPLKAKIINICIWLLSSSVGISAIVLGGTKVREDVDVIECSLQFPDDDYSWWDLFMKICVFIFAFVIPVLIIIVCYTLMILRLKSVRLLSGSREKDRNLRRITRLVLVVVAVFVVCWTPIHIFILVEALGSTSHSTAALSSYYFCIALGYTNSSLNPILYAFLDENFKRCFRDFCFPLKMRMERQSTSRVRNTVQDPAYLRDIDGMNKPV
Data set [13] deals with T3, ADAM17 (Homo sapiens, UniProt P78536). Nature of the data set: ADAM17 counter-screen, HTS campaign and profiling. Type of data set: biochemical.
T3 sequence (P78536 215-824, species assumed): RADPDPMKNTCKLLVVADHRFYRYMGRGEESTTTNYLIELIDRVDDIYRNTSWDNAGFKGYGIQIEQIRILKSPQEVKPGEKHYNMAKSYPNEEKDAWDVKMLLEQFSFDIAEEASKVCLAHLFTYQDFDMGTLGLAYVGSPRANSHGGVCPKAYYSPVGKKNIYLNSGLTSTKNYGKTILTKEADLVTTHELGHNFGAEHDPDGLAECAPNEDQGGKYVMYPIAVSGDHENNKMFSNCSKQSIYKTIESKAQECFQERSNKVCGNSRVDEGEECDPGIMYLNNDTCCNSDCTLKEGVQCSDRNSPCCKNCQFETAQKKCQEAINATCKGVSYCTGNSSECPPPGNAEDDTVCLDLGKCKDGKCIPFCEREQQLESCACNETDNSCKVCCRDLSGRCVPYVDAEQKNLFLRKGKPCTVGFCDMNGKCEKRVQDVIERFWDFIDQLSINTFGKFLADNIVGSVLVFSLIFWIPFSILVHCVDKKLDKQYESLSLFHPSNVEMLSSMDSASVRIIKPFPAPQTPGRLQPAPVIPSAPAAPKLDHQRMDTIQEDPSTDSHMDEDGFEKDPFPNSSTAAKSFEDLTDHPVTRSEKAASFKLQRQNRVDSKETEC
Excerpt: as §1
For orientation: A counterscreen serves to expose hits that act by an unwanted route or on another target.

The test system of data set [14] is collagen-induced arthritis model. Nature of the data set: Collagen-induced arthritis (CIA) in vivo model. More on the design: species or system rat. The text has this:
FIG. 1 is a graph showing disease scores of rat collagen-induced arthritis model study of CID3117694. The disease score is used to assess severity of rheumatoid arthritis (RA) by measuring disease activity, functional impairment, and physical damage present. FIG. 2 is a graph showing paw swelling measurements of rat collagen-induced arthritis model study of CID3117694.* FIGS. 3A-F show micrographs of paw swelling observations of rat collagen-induced arthritis model study of CID3117694. […] The following scale was used: Score 0: normal: Score 1: one joint type (A, B or C) has redness and swelling: Score 2: Two joint types have redness and swelling: Score 3: all three joint types have redness and swelling; and Score 4: maximal redness and swelling of the entire paw leads to disappearance of anatomical definition. […] To test the efficacy of using ADAM10 inhibitor. CID3117694, for treatment of rheumatoid arthritis (RA), the instant inventor conducted a study using the […] Collagen-induced Arthritis (CIA) in vivo model. This model is a gold standard for RA pre-clinical studies of investigational drugs.

The subject of data set [15] is ICOSL. Nature of the data set: Cell-based inhibition of ICOSL shedding (responsible ADAM 10) in B cells. The settings on record: Mouse, 10 μM tested.
Excerpt: as §2

The target in data set [16] is T1, ADAM10. The conditions noted are these: PubChem AID 743338; cited from earlier work.
Data set [17] concerns the target T3, ADAM17. The conditions noted are these: cited from earlier work.
Data set [18] has as its target T1, ADAM10. The conditions noted are these: cited from earlier work.

Sequence of opioid receptors (OPRD1) (P41143 whole entry, species assumed): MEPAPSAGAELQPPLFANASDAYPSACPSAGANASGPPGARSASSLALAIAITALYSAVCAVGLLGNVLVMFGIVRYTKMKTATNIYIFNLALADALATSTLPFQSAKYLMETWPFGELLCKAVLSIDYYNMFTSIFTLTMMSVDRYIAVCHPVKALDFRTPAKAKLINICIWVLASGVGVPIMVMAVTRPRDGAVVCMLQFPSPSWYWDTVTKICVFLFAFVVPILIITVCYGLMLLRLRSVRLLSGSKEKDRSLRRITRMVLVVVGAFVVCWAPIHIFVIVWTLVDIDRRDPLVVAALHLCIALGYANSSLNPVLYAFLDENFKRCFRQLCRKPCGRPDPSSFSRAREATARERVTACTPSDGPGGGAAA
Sequence of adrenergic (ADRB2) (P07550 whole entry, species assumed): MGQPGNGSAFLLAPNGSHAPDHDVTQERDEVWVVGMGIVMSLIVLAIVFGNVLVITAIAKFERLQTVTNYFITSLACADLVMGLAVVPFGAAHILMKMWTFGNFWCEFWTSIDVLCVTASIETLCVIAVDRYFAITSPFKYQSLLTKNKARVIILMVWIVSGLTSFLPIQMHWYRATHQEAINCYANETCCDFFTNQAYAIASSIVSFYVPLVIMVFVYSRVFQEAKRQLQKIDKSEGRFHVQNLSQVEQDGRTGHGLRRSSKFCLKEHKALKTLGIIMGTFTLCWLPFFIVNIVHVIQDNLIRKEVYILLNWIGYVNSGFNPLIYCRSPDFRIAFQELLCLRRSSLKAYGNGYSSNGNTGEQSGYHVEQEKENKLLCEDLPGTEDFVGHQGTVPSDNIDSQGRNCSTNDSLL

As to `COc1cccc(C(=O)NNC(=O)C(=O)Nc2ccc(C)c(Cl)c2)c1` [CID3117694, N-(3-chloro-4-methylphenyl)-2-[2-(3-methoxybenzoyl) hydrazinyl]-2-oxoacetamide], the ADAM10 inhibitory potency entry in data set [1] is “micromolar-potent”. For the same compound, the “affinity for a broader panel of Zn metalloproteases” value in data set [2] was “negligible affinity”. The “toxicity in cell-based assays” value in data set [3] is on record as “lack of toxicity”. The “activity against ADRB2” value in data set [4] is “inactive”. Further, the “activity against OPRM1” value in [5] was “inactive”. Besides, the “% Inhibition” value in data set [6] was 80%; in [9], 50%; in [10] it was 100%; in data set [15] it was 95%. Also, in data set [7], the “activity against OPRD1” value was “inactive”. In data set [8], the “biological activity across PubChem bioassays” value is “inactive in 524 bioassays and active only against 3 targets”. Besides, the “activity against CHRM1” value in [11] is “inactive”. Also, the “activity against OPRK1” value in [12] was “inactive”. In [13], the “affinity for ADAM17” value is reported as “negligible affinity”. Moreover, the RA disease score entry in data set [14] (FIG. 1) is reported as “dose-dependently lowers”. In data set [14] (FIG. 2 measurement, FIGS. 3A-F observation), the paw swelling entry is “dose-dependently lowers”. Moreover, the “serum levels of RA biomarker C-reactive protein” value in data set [14] (FIG. 4) is given as “dose-dependently decreases”. In addition, the “serum levels of RA biomarker Interleukin-6 (IL-6)” value in data set [14] (FIG. 5) is on record as “dose-dependently decreases”. Moreover, the “serum levels of RA biomarker Interleukin-10 (IL-10)” value in [14] (FIG. 6) is reported as “dose-dependently decreases”. Moreover, the “histopathology of right hind paws” value is reported as “Synovial inflammation: Capital H: Hyperplasia: Capital P: Pannus Formation: Capital IEJ: Inflamed & eroded joint” in data set [14] (G4, CIA+Test Comp 10 mg Kg); “Synovial inflammation: Capital H: Hyperplasia” in data set [14] (G5, CIA+Test Comp 30 mg Kg); “Normal healthy bone & cartilage of arthritis joint: Capital H: Hyperplasia. Capital SI: Synovial inflammation” in data set [14] (G6, CIA+Test Comp 50 mg Kg). Further, the “activity in PubChem bioassay” value in data set [16] was “active”.
Take `CNC(=O)[C@@H](NC(=O)[C@H](CCCc1ccccc1)[C@H](C)N(O)C=O)C(C)(C)C` [GI 254023X]: the pIC50 in [17] was 6.27; in data set [18] it was 8.28.
For `O=C(NO)[C@H]1C[C@H](OC(=O)N2CCCC2)CC[C@@H]1C(=O)N1CCC(c2ccccc2)CC1` [INCB8765], the pIC50 is 5.69 in data set [17] and 7.01 in data set [18].
As to `COc1ccc2c(c1)c(CC(=O)O)c(C)n2C(=O)c1ccc(Cl)cc1` [Indomethacin, indomethacin, reference compound], the “histopathology of right hind paws” value in data set [14] (G3, CIA+Indomethacin 2.5 mg Kg) is “Normal Morphology of bone & cartilage of arthritis joint: Capital SI: Synovial inflammation: Capital H: Hyperplasia”.
